From patent US9701707B2, “Methods of synthesizing substituted purine compounds” (Epizyme, Inc., priority 2013, dated 2017)

Legend:
[1] = Dynamic vapor sorption (DVS) hygroscopicity; format: physicochemical; conditions: at 80% RH, 25° C.
Procedure: Form A may be observed EP-1. […] (peak temperature) which is accompanied by 5.9 wt % weight loss up to ˜150° C. in the TGA curve (FIG. 3). […] Form A is hygroscopic as indicated by water adsorption of 5.8 wt % at 80% RH measured by dynamic vapor sorption (DVS) (FIG. 4). A solid is considered moderately hygroscopic when water uptake at 25° C./80% RH is between 2-15 wt % based on criteria of European Pharmacopeia.
Form B of EP-1 trihydrate (x is 3) is a trihydrate as confirmed by single crystal analysis. The experimental XRPD pattern of Form B matches well with the simulated one from single crystal data (FIG. 6). This was also confirmed by DSC and TGA data (FIG. 7 and FIG. 8, respectively). DSC data indicates Form B dehydrates at ˜132° C. […] Form B is slightly hygroscopic as evidenced by a weight change of ˜0.3% between 0% and 95% RH (FIG. 9), (data collection was programmed from 95% RH-0% RH-95% RH at a step size of 10% RH at 25° C.).

[2] = Solubility in Simulated Gastric Fluid (SGF) at 37° C.; format: physicochemical
Procedure: To study if Form A and Form B would perform differently in stomach, the solubilities of Form A and Form B were measured in Simulated Gastric Fluid (SGF, see below for SGF preparation) at 37° C. In these experiments, about 100 mg Form A and 50 mg Form B were weighed into 20-ml glass vials, followed by addition of 4 ml SGF into each vial and the samples were stirred at 37° C. Aliquots were taken for solubility determination using HPLC after 15, 30, and 60 min, respectively. The remaining solids after each time point were subject to XRPD analysis.
Weigh appropriate amount of hydrochloride (HCl) and sodium chloride (NaCl) into a 1-L flask followed by addition of 1-L deionized water. The mixture was stirred until all solids are dissolved. Check pH value with a pH-meter and adjust the pH to 1.8 with HCl (1N) or NaOH (1N).

CC(C)N(CC1O[C@@H](n2cnc3c(N)ncnc32)[C@H](O)[C@@H]1O)C1CC(CCc2nc3cc(C(C)(C)C)ccc3[nH]2)C1 (stereo partly drawn) [Form A, (2R,3R,4S,5R)-2-(6-amino-9H-purin-9-yl)-5-((((1r,3S)-3-(2-(5-(tert-butyl)-1H-benzo[d]imidazol-2-yl)ethyl)cyclobutyl)(isopropyl)amino)methyl)tetrahydrofuran-3,4-diol hydrate]
water adsorption [1]: 5.8 wt % | time of conversion to Form B in SGF [2]: ≤ 15 min | solubility at 15 min ([2]; Simulated Gastric Fluid (SGF), pH 1.8, simulated gastric fluid, thermodynamic from solid, 15 min, calculated using free base content): 5400 µg/mL | solubility at 30 min ([2]; Simulated Gastric Fluid (SGF), pH 1.8, simulated gastric fluid, thermodynamic from solid, 30 min, calculated using free base content): 5500 µg/mL | solubility at 60 min ([2]; Simulated Gastric Fluid (SGF), pH 1.8, simulated gastric fluid, thermodynamic from solid, 60 min, calculated using free base content): 5300 µg/mL
